From patent US10624897B2, “Chlorobenzene substituted azaaryl compounds” (TAIPEI MEDICAL UNIVERSITY, priority 2015, dated 2020)
“And” between values parts separate entries of the source, which are not always exact repeats. Identical values can stand only once. Like-named read-outs stand apart in the source and are kept apart here.

Key:
FGFR3 = biological target: T1, FGFR3 (Homo sapiens, UniProt P22607); experiment: Kinase binding assay (Kd); conditions: FGFR3 (wild-type)
T1 construct: made in house; host or cells: E. coli BL21-derived host (T7 phage) or HEK-293
Protocol: (§1) Kinase assays. For most assays, kinase-tagged T7 phage strains were prepared in an E. coli host derived from the BL21 strain. E. coli were grown to log-phase and infected with T7 phage and incubated with shaking at 32° C. until lysis. The lysates were centrifuged and filtered to remove cell debris. The remaining kinases were produced in HEK-293 cells and subsequently tagged with DNA for qPCR detection. […] The liganded beads were blocked with excess biotin and washed with blocking buffer (SeaBlock (Pierce), 1% BSA, 0.05% Tween 20, 1 mM DTT) to remove unbound ligand and to reduce non-specific binding. […] All reactions were performed in polystyrene 96-well plates in a final volume of 0.135 ml. […] The kinase concentration in the eluates was measured by qPCR.
(§2) An 11-point 3-fold serial dilution of each test compound was prepared in 100% DMSO at 100× final test concentration and subsequently diluted to 1× in the assay (final DMSO concentration=1%). Most Kds were determined using a compound top concentration=30,000 nM.
(§3) Binding constants (Kds) were calculated with a standard dose-response curve using the Hill equation: […]
(§4) The Hill Slope was set to −1. Curves were fitted using a non-linear least square fit with the Levenberg-Marquardt algorithm.
The compound and assay method are similar to those mentioned in Example 45.

RT-112 tumor xenografts = conditions: for Tumor growth inhibition (%): i.p., nude mice
Protocol: Eight-week-old female athymic nude mice were group-housed in the TMU Laboratory Animal Center (Taipei, Taiwan) under conditions of constant photoperiod (12 h light/12 h dark at 21-0023° C. and 60-85% humidity) with ad libitum access to sterilized food and water. […] Tumors were measured weekly using calipers. Tumor volume (mm3) was calculated from w2×½ (w=width, 1=length in mm of the tumor).

RT-112 cells [1] = experiment: Cell cycle distribution by flow cytometry; format: cell-based; conditions: 48 h to 72 h, FIG. 3A
PIP5K2B = biological target: T2, PIP5K2B (Homo sapiens, UniProt P78356); experiment: Lipid kinase binding assay (Kd)
T2 construct: made in house; host or cells: E. coli BL21-derived host (T7 phage) or HEK-293
Protocol: as §1, §2, §3, §4

PIK3C2B = biological target: T3, PIK3C2B (Homo sapiens, UniProt O00750); experiment: Lipid kinase binding assay (Kd)
T3 construct: made in house; host or cells: E. coli BL21-derived host (T7 phage) or HEK-293
Protocol: as §1, §2, §3, §4

PIK3CD = biological target: T4, PIK3CD (Homo sapiens, UniProt O00329); experiment: Lipid kinase binding assay (Kd)
T4 construct: made in house; host or cells: E. coli BL21-derived host (T7 phage) or HEK-293
Protocol: as §1, §2, §3, §4

PIKFYVE = biological target: T5, PIKFYVE (Homo sapiens, UniProt Q9Y2I7); experiment: Lipid kinase binding assay (Kd)
T5 construct: made in house; host or cells: E. coli BL21-derived host (T7 phage) or HEK-293
Protocol: as §1, §2, §3, §4

PIK3C2G = biological target: T6, PIK3C2G (Homo sapiens, UniProt O75747); experiment: Lipid kinase binding assay (Kd)
T6 construct: made in house; host or cells: E. coli BL21-derived host (T7 phage) or HEK-293
Protocol: as §1, §2, §3, §4

PIP5K1A = biological target: T7, PIP5K1A (Homo sapiens, UniProt Q99755); experiment: Lipid kinase binding assay (Kd)
T7 construct: made in house; host or cells: E. coli BL21-derived host (T7 phage) or HEK-293
Protocol: as §1, §2, §3, §4

PIP5K1C = biological target: T8, PIP5K1C (Homo sapiens, UniProt O60331); experiment: Lipid kinase binding assay (Kd)
T8 construct: made in house; host or cells: E. coli BL21-derived host (T7 phage) or HEK-293
Protocol: as §1, §2, §3, §4

PIP5K2C = biological target: T9, PIP5K2C (Homo sapiens, UniProt Q8TBX8); experiment: Lipid kinase binding assay (Kd)
T9 construct: made in house; host or cells: E. coli BL21-derived host (T7 phage) or HEK-293
Protocol: as §1, §2, §3, §4

PIK3C3 = biological target: T10, PIK3C3 (Homo sapiens, UniProt Q8NEB9); experiment: Lipid kinase binding assay (Kd)
T10 construct: made in house; host or cells: E. coli BL21-derived host (T7 phage) or HEK-293
Protocol: as §1, §2, §3, §4

PIK3CB = biological target: T11, PIK3CB (Homo sapiens, UniProt P42338); experiment: Lipid kinase binding assay (Kd)
T11 construct: made in house; host or cells: E. coli BL21-derived host (T7 phage) or HEK-293
Protocol: as §1, §2, §3, §4

HUVEC = experiment: MTT assay, viability of normal cells; format: cell-based, Human; conditions: 72 hours, FIG. 1B
Protocol: Cell viability was assessed the MTT assay. […] Data are expressed as means±S.D. (***P<0.001 compares to control group).
Cells were cultured in RPMI-1640 (RT-112, KMS-11, SNU-16, HT-29, HCT-116, NCI—H520, Hep3B, PLC/PRF/5, HL-60, MOLT-4) and DMEM (HepG2, MCF-7, MDA-MB-231) with 10% FBS (v/v) and Penicillin/Streptomycin (100 U/ml). FU-DDLS-1 cell line was maintained in DMEM:F12 medium with 10% FBS. LiSa-2 cell line was maintained in IMDM/RPMI-1640 in a 4:1 ratio supplemented with 10% FBS, 2 mmol/L L-glutamine, and 0.1 mg/mL gentamicin. Human umbilical vein endothelial cells (HUVECs) were grown to confluence on 1% collagen, and maintained in 90% Medium 199 with 25 U/ml heparin, 30 μg/ml endothelial cell growth supplement (ECGS) adjusted to contain 1.5 g/L sodium bicarbonate, 10% FBS and Penicillin/Streptomycin (100 U/ml) Cultures were maintained at 37° C. in a humidified atmosphere of 5% CO2/95% air.
Cells were seeded in 96-well plates (5,000 cells/well) and incubated overnight for attachment, and were then treated with indicated agents in 10% FBS-supplemented medium for 72 hours. […] After removal of medium, the cells were lysed with 100 μL per well dimethyl sulfoxide (DMSO), and absorbance at 550 nm was measured with microplate reader. The relative cell viability (%) was expressed as a percentage relative to a DMSO control cells.

RT-112 cells [2] = experiment: Western blot of G0/G1 regulatory proteins; format: cell-based; conditions: 24 h, FIG. 3C
Protocol: C. […] Apoptosis was assessed via detection of cleaved caspase-3 and PARP.
We observed that genes associated with cell cycle progression were decreased in MPT0L145-treated cells. […] This phenomenon was also observed in the cells treated with BGJ-398 (FIG. 3A). […] Next, we examined expression of G0/G1 regulatory proteins via western blot. […] The possibility of MPT0L145-induced apoptosis was further eliminated by examining cleavage of caspase-3 and its substrate, PARP, in 72 h, compared with paclitaxel (FIG. 3D).

IKK-beta = biological target: T12, IKK-beta (Homo sapiens, UniProt O14920); experiment: Kinase binding assay (Kd)
T12 construct: made in house; host or cells: E. coli BL21-derived host (T7 phage) for most kinases, HEK-293 for the rest
Protocol: as §1, §2, §3, §4

BRAF = biological target: T13, BRAF (Homo sapiens, UniProt P15056); experiment: Kinase binding assay (Kd)
T13 construct: made in house; host or cells: E. coli BL21-derived host (T7 phage) or HEK-293
Protocol: as §1, §2, §3, §4

SRPK3 = biological target: T14, SRPK3 (Homo sapiens, UniProt Q9UPE1); experiment: Kinase binding assay (Kd)
T14 construct: made in house; host or cells: E. coli BL21-derived host (T7 phage) or HEK-293
Protocol: as §1, §2, §3, §4

LKB1 = biological target: T15, LKB1 (Homo sapiens, UniProt Q15831); experiment: Kinase binding assay (Kd)
T15 construct: made in house; host or cells: E. coli BL21-derived host (T7 phage) for most kinases, HEK-293 for the rest
Protocol: as §1, §2, §3, §4

FGFR4 = biological target: T16, FGFR4 (Homo sapiens, UniProt P22455); experiment: Kinase binding assay (Kd)
T16 construct: made in house; host or cells: E. coli BL21-derived host (T7 phage) or HEK-293
Protocol: as §1, §2, §3, §4

PIK3CG = biological target: T17, PIK3CG (Homo sapiens, UniProt P48736); experiment: Kinase binding assay (Kd)
T17 construct: made in house; host or cells: E. coli BL21-derived host (T7 phage) for most kinases, HEK-293 for the rest
Protocol: as §1, §2, §3, §4

AURKB = biological target: T18, AURKB (Homo sapiens, UniProt Q96GD4); experiment: Kinase binding assay (Kd)
T18 construct: made in house; host or cells: E. coli BL21-derived host (T7 phage) or HEK-293
Protocol: as §1, §2, §3, §4

T1 sequence (P22607 23-806): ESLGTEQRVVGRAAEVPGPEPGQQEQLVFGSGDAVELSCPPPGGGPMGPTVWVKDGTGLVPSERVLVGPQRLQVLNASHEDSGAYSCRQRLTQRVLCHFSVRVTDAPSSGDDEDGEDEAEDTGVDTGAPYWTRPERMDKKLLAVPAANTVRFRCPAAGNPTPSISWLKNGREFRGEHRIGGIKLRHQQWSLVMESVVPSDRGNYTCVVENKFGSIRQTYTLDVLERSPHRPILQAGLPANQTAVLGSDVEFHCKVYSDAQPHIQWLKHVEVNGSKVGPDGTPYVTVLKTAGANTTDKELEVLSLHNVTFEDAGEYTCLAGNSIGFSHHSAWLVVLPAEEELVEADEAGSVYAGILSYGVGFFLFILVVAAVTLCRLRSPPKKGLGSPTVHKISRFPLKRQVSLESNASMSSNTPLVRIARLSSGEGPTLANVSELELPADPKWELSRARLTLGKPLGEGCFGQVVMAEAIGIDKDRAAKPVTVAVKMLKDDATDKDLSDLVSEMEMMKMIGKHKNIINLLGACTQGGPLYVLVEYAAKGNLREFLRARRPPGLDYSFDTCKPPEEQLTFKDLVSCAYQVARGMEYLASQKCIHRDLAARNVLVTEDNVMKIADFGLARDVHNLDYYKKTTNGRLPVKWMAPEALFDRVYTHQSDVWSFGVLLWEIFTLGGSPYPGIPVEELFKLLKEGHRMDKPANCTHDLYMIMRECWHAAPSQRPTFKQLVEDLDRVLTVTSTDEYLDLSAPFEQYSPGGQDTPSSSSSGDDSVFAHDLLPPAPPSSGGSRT
T13 sequence (P15056 whole entry): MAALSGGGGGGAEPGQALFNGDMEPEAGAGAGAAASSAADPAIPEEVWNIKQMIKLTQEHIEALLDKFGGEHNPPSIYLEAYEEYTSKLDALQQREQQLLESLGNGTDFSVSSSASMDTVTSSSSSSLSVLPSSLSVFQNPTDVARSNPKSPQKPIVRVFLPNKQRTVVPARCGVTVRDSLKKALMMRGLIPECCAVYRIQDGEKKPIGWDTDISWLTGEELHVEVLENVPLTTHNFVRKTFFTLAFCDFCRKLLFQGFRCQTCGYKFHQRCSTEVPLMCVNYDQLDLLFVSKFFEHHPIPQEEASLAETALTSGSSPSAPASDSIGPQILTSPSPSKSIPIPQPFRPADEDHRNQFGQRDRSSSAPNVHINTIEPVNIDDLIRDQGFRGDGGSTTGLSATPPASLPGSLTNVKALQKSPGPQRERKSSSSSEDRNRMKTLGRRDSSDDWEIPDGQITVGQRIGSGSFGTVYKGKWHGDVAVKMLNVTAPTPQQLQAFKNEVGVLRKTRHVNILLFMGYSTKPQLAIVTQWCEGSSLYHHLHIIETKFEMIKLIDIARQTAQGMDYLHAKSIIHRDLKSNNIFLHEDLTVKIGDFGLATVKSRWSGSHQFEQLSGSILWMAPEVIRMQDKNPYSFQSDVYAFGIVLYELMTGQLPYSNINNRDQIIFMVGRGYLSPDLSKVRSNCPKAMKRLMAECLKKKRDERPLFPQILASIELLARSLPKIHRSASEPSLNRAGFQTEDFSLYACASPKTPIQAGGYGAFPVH
T7 sequence (Q99755 whole entry): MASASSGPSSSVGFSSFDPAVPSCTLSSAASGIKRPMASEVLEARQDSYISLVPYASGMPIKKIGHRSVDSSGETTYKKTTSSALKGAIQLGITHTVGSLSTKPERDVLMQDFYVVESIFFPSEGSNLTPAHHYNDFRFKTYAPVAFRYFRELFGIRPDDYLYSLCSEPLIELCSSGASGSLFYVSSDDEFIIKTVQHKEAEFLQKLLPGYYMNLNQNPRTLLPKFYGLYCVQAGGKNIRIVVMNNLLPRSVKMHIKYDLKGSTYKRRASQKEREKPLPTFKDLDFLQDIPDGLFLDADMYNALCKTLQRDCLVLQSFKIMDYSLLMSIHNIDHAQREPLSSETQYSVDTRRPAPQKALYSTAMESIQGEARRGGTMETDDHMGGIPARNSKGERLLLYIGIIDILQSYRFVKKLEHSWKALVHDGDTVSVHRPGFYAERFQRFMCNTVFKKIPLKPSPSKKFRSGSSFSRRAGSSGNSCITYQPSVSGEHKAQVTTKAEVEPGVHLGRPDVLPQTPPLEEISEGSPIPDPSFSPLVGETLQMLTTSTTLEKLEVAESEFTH
T5 sequence (Q9Y2I7 whole entry): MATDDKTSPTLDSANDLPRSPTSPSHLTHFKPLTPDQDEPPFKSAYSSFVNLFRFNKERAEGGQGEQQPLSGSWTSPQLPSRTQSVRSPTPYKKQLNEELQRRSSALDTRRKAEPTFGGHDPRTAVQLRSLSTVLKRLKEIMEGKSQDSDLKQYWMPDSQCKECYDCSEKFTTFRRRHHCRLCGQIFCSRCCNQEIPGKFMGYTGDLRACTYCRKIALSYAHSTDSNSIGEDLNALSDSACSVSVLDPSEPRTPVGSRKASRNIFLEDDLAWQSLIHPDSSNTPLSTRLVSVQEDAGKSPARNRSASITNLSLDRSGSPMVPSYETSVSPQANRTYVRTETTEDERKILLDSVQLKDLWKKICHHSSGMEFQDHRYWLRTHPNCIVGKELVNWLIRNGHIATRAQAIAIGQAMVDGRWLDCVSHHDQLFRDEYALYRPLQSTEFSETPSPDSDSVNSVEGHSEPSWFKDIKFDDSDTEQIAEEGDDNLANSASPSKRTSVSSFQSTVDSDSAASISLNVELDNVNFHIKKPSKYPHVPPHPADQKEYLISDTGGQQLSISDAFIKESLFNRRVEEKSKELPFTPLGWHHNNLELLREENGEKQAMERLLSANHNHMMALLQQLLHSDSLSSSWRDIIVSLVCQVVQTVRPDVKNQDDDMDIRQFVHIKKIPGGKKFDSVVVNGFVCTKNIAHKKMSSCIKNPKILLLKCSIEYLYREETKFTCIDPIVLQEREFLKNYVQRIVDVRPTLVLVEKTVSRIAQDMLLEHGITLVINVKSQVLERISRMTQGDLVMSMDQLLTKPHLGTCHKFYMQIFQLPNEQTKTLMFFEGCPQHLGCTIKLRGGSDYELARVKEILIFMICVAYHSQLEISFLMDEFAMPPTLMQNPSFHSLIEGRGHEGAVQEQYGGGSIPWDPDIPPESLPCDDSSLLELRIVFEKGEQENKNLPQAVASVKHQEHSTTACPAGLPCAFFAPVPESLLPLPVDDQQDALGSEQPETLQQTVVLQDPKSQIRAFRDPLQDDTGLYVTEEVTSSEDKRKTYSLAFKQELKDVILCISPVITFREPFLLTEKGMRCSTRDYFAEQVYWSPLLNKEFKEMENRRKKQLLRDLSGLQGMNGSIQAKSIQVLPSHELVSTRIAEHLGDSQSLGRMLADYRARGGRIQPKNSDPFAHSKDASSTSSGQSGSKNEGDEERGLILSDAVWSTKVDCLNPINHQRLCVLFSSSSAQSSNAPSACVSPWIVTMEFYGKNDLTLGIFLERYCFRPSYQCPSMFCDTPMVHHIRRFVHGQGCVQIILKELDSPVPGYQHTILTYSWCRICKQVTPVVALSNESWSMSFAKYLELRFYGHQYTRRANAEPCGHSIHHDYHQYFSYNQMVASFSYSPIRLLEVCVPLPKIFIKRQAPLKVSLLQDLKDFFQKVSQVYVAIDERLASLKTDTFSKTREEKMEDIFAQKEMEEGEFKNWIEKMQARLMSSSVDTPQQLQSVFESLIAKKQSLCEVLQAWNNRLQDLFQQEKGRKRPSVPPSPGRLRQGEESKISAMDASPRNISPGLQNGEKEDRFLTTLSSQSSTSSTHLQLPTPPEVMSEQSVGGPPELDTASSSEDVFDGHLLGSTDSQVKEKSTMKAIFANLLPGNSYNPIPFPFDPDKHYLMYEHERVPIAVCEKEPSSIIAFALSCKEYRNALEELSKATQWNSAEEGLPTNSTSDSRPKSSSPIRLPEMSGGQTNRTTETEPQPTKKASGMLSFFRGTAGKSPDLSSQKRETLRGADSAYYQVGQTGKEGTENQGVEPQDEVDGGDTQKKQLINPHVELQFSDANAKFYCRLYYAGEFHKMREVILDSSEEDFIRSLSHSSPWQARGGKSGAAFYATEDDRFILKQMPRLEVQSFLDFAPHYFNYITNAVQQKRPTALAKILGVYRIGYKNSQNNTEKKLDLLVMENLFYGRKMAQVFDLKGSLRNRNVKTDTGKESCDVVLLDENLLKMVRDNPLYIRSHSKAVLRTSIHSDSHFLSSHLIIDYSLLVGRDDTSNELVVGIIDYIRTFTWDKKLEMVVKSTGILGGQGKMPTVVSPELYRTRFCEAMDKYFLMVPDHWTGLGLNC
T12 sequence (O14920 whole entry): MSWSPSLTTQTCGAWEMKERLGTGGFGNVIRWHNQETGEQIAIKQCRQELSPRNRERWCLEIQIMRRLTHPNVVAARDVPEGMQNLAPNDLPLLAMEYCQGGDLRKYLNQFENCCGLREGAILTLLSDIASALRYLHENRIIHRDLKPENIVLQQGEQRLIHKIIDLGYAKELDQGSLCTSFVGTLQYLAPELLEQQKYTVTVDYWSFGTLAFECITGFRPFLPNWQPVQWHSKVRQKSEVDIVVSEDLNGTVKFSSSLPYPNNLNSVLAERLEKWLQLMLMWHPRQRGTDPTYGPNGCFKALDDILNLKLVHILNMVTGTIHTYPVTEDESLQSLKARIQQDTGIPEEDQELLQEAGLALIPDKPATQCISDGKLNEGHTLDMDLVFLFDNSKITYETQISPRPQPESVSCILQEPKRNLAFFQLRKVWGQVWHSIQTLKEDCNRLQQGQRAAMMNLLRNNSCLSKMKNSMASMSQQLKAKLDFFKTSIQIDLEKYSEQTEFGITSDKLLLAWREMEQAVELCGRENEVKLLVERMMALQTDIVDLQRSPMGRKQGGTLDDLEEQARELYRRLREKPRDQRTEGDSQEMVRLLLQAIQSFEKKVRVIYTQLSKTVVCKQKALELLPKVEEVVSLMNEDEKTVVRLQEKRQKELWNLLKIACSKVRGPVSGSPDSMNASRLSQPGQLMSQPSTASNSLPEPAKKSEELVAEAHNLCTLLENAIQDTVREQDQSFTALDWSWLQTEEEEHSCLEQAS

CCN1CCN(c2ccc(Nc3ncnc(N(C)C(=O)Nc4c(Cl)c(OC)c(Cl)c(OC)c4Cl)n3)cc2)CC1 [MPT0L145, 1-(4-((4-(4-ethylpiperazin-1-yl)phenyl)amino)-1,3,5-triazin-2-yl)-1-methyl-3-(2,4,6-trichloro-3,5-dimethoxyphenyl)urea]
Kd (FGFR3): 0.27 µM and 0.39 µM
Tumor growth inhibition (%) (RT-112 tumor xenografts; 5 mg/kg/d): 61.4%
Tumor growth inhibition (%) (RT-112 tumor xenografts; 10 mg/kg/d): 74.6%
tumor growth (RT-112 tumor xenografts; 5 and 10 mg/kg/d i.p., dose-dependent): significantly suppressed tumor growth
accumulation of the sub-G1 phase (apoptotic cell death) (RT-112 cells [1]): did not promote accumulation of the sub-G1 phase
Kd (PIP5K2B): > 10 µM
Kd (PIK3C2B): 1 µM
Kd (PIK3CD): > 10 µM
Kd (PIKFYVE): 2.6 µM
Kd (PIK3C2G): > 10 µM
Kd (PIP5K1A): > 10 µM
Kd (PIP5K1C): > 10 µM
Kd (PIP5K2C): > 10 µM
Kd (PIK3C3): 0.00053 µM
Kd (PIK3CB): > 10 µM
toxicity in normal cells (HUVEC) compared with BGJ-398 (HUVEC): significantly lower toxicity
cyclin E levels (RT-112 cells [2]): marked decrease
p16 level (RT-112 cells [2]): slight increase
Kd (IKK-beta): > 10 µM
Kd (BRAF): > 10 µM
Kd (SRPK3): > 10 µM
Kd (LKB1): > 10 µM
Kd (FGFR4): 7.5 µM
Kd (PIK3CG): > 10 µM
Kd (AURKB): > 10 µM
